Laboratory results taken from ChEMBL document CHEMBL1201862, “PubChem BioAssay data set” (2004).
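Each compound was tested at five concentrations against cells in 96-well plates for 48 hours. Here, GI50 denotes the concentration required for 50% inhibition of growth.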 Active and inactive are the calls of the source. No stated cut-off is given here; in the data, active = GI50 up to about 1.1 µM and inactive = higher.

Legend:
Test in all cases: NCI anticancer screen, dose series, 48 h
[1] = test system: SW-620
[2] = test system: UACC-62
[3] = test system: XF498
[4] = test system: HOP-92
[5] = test system: NCI-H522
[6] = test system: NCI-H460
[7] = test system: UACC-257
[8] = test system: SK-OV-3
[9] = test system: COLO 205
[10] = test system: IGROV-1
[11] = test system: SNB-19
[12] = test system: M14
[13] = test system: DMS-114
[14] = test system: SF-295
[15] = test system: SNB-75
[16] = test system: LOX IMVI
[17] = test system: SF-268
[18] = test system: RXF 631
[19] = test system: NCI-H226
[20] = test system: A549
[21] = test system: HCT-116
[22] = test system: KM12
[23] = test system: NCI-H23
[24] = test system: SN12C
[25] = test system: KM-20L2
[26] = test system: U-251
[27] = test system: OVCAR-3
[28] = test system: UO-31
[29] = test system: ACHN
[30] = test system: EKVX
[31] = test system: M19-MEL
[32] = test system: DMS-273
[33] = test system: SK-MEL-28
[34] = test system: A498
[35] = test system: OVCAR-4
[36] = test system: SNB-78
[37] = test system: CAKI-1
[38] = test system: HCT-15
[39] = test system: TK-10
[40] = test system: OVCAR-5
[41] = test system: HT-29
[42] = test system: OVCAR-8
[43] = test system: LXFL 529
[44] = test system: SK-MEL-5
[45] = test system: SF-539
[46] = test system: RXF 393
[47] = test system: HOP-18
[48] = test system: HL-60
[49] = test system: DLD-1
[50] = test system: MOLT-4
[51] = test system: RPMI-8226
[52] = test system: 786-0
[53] = test system: CCRF-CEM
[54] = test system: K562
[55] = test system: Malme-3M
[56] = test system: HOP-62
[57] = test system: HCC 2998
[58] = test system: SK-MEL-2
[59] = test system: SR

Measured: GI50

O=C(O)C1CCC(=O)N1C(=O)COc1cc(Cl)c(Cl)cc1Cl (configuration not stated)
inactive: [1] > 100 µM | [2] > 100 µM | [3] > 100 µM | [4] 82 µM | [5] > 100 µM | [6] > 100 µM | [7] > 100 µM | [8] > 100 µM | [9] > 100 µM | [10] > 100 µM | [11] > 100 µM | [12] > 100 µM | [13] > 100 µM | [14] > 100 µM | [15] 40.6 µM | [16] > 100 µM | [17] > 100 µM | [18] > 100 µM | [19] > 100 µM | [20] > 100 µM | [21] > 100 µM | [22] > 100 µM | [23] > 100 µM | [24] > 100 µM | [25] > 100 µM | [26] > 100 µM | [27] > 100 µM | [28] > 100 µM | [29] > 100 µM | [30] > 100 µM | [31] > 100 µM | [32] > 100 µM | [33] > 100 µM | [34] > 100 µM | [35] > 100 µM | [36] > 100 µM | [37] > 100 µM | [39] > 100 µM | [40] > 100 µM | [41] > 100 µM | [42] > 100 µM | [43] > 100 µM | [44] > 100 µM
> 100 µM: [38]

Cn1nc(-c2ccccc2)c(C(=O)/C=C/c2ccc(F)cc2)c(N2CCCC2)c1=O
active: [48] 0.644 µM
12.2 µM: [38]
inactive: [1] 15.6 µM | [2] 12.7 µM | [3] 20.8 µM | [45] 13.6 µM | [4] 13.9 µM | [5] 6.4 µM | [6] 21.7 µM | [8] 19.5 µM | [9] 15.1 µM | [10] 21.4 µM | [11] 17.2 µM | [12] 15.9 µM | [13] 11.5 µM | [46] 8.2 µM | [16] 17.9 µM | [47] 14.6 µM | [17] 14.3 µM | [20] 15.1 µM | [21] 6.5 µM | [23] 10.9 µM | [24] 16.9 µM | [49] 11.2 µM | [25] 13.1 µM | [26] 13.2 µM | [28] > 10 µM | [29] 24.1 µM | [30] 19.2 µM | [31] 15.1 µM | [32] 14.8 µM | [33] 16 µM | [50] 4.41 µM | [51] 6.62 µM | [37] 12.2 µM | [39] 24 µM | [52] 13 µM | [53] 5.36 µM | [41] 4.99 µM | [42] 15.1 µM | [54] 7.82 µM | [43] 12.8 µM | [44] 12.4 µM

CCCCCCCCCc1cc(=O)c2ccc(OCc3ccccc3)cc2o1
> 100 µM: [38]
inactive: [1] > 100 µM | [2] > 100 µM | [3] > 100 µM | [45] 90.8 µM | [4] > 100 µM | [5] > 100 µM | [6] 64.4 µM | [7] > 100 µM | [8] > 100 µM | [9] > 100 µM | [55] 25.8 µM | [10] > 100 µM | [56] > 100 µM | [11] > 100 µM | [12] > 100 µM | [13] 92.9 µM | [46] 96.2 µM | [14] > 100 µM | [15] 30.8 µM | [57] > 100 µM | [58] 43.1 µM | [16] > 100 µM | [47] > 100 µM | [17] > 100 µM | [19] 34.7 µM | [20] 70.8 µM | [21] 71.3 µM | [22] > 100 µM | [23] > 100 µM | [48] 14.5 µM | [24] > 100 µM | [49] > 100 µM | [25] > 100 µM | [26] > 100 µM | [27] > 100 µM | [28] > 100 µM | [29] > 100 µM | [30] > 100 µM | [31] 69.7 µM | [32] > 100 µM | [33] > 100 µM | [35] 83.2 µM | [36] > 100 µM | [37] 2.92 µM | [39] 65.5 µM | [52] > 100 µM | [40] > 100 µM | [53] 65.2 µM | [41] > 100 µM | [42] > 100 µM | [54] > 100 µM | [43] 73.8 µM | [44] 97.9 µM

CC1=CC[C@H](C)C(C)(C)C1/C=C/C(C)=C/CC[C@@]1(CO)[C@H](CCCO)/C(=C(/C)C=O)CC[C@]1(C)O (some centres not stated)
7.64 µM: [38]
active: [4] < 0.01 µM | [6] 1.11 µM | [9] 1.05 µM | [16] 0.824 µM | [20] 0.877 µM | [48] 0.897 µM | [59] 0.493 µM | [44] 0.513 µM
inactive: [1] 2.01 µM | [3] 7.41 µM | [45] 6.78 µM | [5] 4.06 µM | [7] 15.2 µM | [8] 25.2 µM | [55] 3.27 µM | [10] 11.7 µM | [11] 8.51 µM | [12] 2.07 µM | [46] 14.6 µM | [14] 1.23 µM | [57] 2.31 µM | [58] 15.8 µM | [47] 15.5 µM | [17] 7.46 µM | [19] 1.9 µM | [22] 1.61 µM | [23] 10.2 µM | [24] 5.68 µM | [49] 3.53 µM | [25] 1.82 µM | [26] 2.86 µM | [28] 8.45 µM | [29] 3.68 µM | [30] 2.2 µM | [31] 17.2 µM | [32] 2.2 µM | [33] 11.4 µM | [50] 1.57 µM | [36] 13.2 µM | [37] 3.61 µM | [39] 5.5 µM | [40] 23.6 µM | [53] 4.21 µM | [41] 2.77 µM | [42] 15 µM | [54] 1.31 µM | [43] 7.62 µM

CC1CCC23COC(=O)C2C(O)CCC3C1(C)CC(O)c1ccoc1 (configuration not stated)
> 100 µM: [38]
inactive: [1] > 100 µM | [2] > 100 µM | [3] > 100 µM | [45] > 100 µM | [4] > 100 µM | [5] > 100 µM | [6] > 100 µM | [7] > 100 µM | [8] > 100 µM | [9] > 100 µM | [55] > 100 µM | [10] > 100 µM | [56] > 100 µM | [11] > 100 µM | [12] > 100 µM | [13] > 100 µM | [46] > 100 µM | [14] > 100 µM | [15] 41.3 µM | [57] > 100 µM | [58] > 100 µM | [16] > 100 µM | [47] > 100 µM | [17] > 100 µM | [19] > 100 µM | [20] > 100 µM | [21] > 100 µM | [22] > 100 µM | [23] > 100 µM | [24] > 100 µM | [49] > 100 µM | [25] > 100 µM | [26] > 100 µM | [27] > 100 µM | [28] > 100 µM | [29] > 100 µM | [30] > 100 µM | [31] > 100 µM | [33] > 100 µM | [34] > 100 µM | [35] > 100 µM | [50] > 100 µM | [36] > 100 µM | [39] > 100 µM | [52] > 100 µM | [40] > 100 µM | [53] > 100 µM | [41] > 100 µM | [42] > 100 µM | [54] > 100 µM | [43] > 100 µM | [44] > 100 µM

Cc1c2cc[n+](C)cc2c(C)c2c1[nH]c1ccc(OC(C)C)cc12
active: [15] 0.239 µM | [17] 0.474 µM | [24] 0.392 µM | [43] 0.515 µM
> 100 µM: [38]
inactive: [1] 2.49 µM | [2] 2.51 µM | [45] 1.39 µM | [4] 2.6 µM | [5] 1.47 µM | [6] 2.15 µM | [7] 2.37 µM | [9] 1.28 µM | [55] 1.34 µM | [10] 1.9 µM | [12] 6.34 µM | [58] 1.66 µM | [16] 4.19 µM | [47] 2.54 µM | [20] 2.01 µM | [21] 2.91 µM | [22] 1.62 µM | [23] 1.41 µM | [48] 2.56 µM | [25] 3.58 µM | [27] 1.9 µM | [28] 44.1 µM | [29] 11.6 µM | [30] 6.62 µM | [31] 1.64 µM | [32] 2.19 µM | [33] 2.97 µM | [34] 6.35 µM | [35] 2.16 µM | [50] 3.16 µM | [51] 6.1 µM | [39] 19.8 µM | [40] 10.9 µM | [41] 3.06 µM | [44] 1.4 µM
